Data set [1] in a line: Solubility and aggregation in PBS buffer by NMR (SPAM filter, 1H 1D and WaterLOGSY). The following applies: PBS pH 7.5, 1 μM ZnCl2, 1 mM DTT, 10% D2O, 1% DMSO-d6; for solubility: PBS buffer, aqueous buffer, kinetic from dmso stock, theoretical concentration 20 μM, read-out: solubility in PBS buffer by NMR, 20 μM; for aggregation in PBS buffer by NMR: WaterLOGSY; for solubility at 50 µM: theoretical concentration 50 μM; for solubility at 100 µM: theoretical concentration 100 μM. Type of data set: physicochemical. An excerpt:
Under these circumstances, it was decided to explore the solubility of all the synthetized compounds, regardless of their biological activities, to find a suitable candidate for the validation of our working hypothesis, i.e., that the compounds exert their activities by directly binding to RNF5. For that, we first calculated the predicted octanol/water partition coefficient (log Po/w) and the predicted aqueous solubility (log S) of all the analogues by QikProp (Schrödinger Release 2022-1: QikProp, Schrödinger, LLC, New York, NY, 2021, Table S1). […] To shrink down the number of compounds for solubility experiments, just the ones that had −2.0 < log Po/w < 6 and −6.5 < log S <0.5 values were selected. Among them, the PBS solubility was determined for five representative analogues: (i) 12 and 29 bearing different substituents on the benzyl group A; (ii) 34 and 40 showing the replacement of rings B and C with pyridine-4-yl moieties; (iii) 42 in which the N-phenylbenzamidine portion was replaced with a pyridine-2-yl moiety (Table 1).
All the NMR experiments were recorded at 298 K using a 5 mm CryoProbe QCI ^1H/^19F–^13C/^15N–D quadruple resonance, a shielded z-gradient coil, and an automatic sample changer SampleJet NMR system with temperature control. The solubility of the compounds were evaluated by ^1H 1D experiments and aggregation by WaterLOGSY, testing the compounds in buffer PBS pH 7,5, 1 μM ZnCl2, 1 mM DTT, 10% D2O (for the lock signal), and 1% DMSO-d6 at the theoretical concentrations of 20, 50, and 100 μM in the presence of 200 μM 4-trifluoromethyl benzoic acid (internal reference). For all samples, a 1D ^1H NMR experiment was recorded, the water suppression was obtained using the standard NOESY (nuclear Overhauser effect spectroscopy) preset Bruker pulse sequence, with 64k data points, a spectral width (sw) of 30 ppm, 64 scans, acquisition time (aq) of 1.835 s, a relaxation delay (d1) of 4 s, and a mixing time of 10 ms. […] The data were multiplied by an exponential window function with 1 Hz line broadening prior to Fourier transformation. For NMR binding experiments, the compounds were tested at 50 μM in buffer PBS pH 7.5, 1 μM ZnCl2, 1 mM DTT, 10% D2O (for the lock signal), and 1% DMSO-d6 in the absence and in the presence of 3 μM RNF5. WaterLOGSY experiments were recorded with the same parameters used in solubility assays, but with a higher number of scans (512); STD experiments were recorded with 128 scans, with two on (0.7 and 1 ppm) and one off (−50 ppm) resonance spectra, a Gaussian-shaped train pulse of 50 ms each was employed, with a total saturation time of the protein envelope of 5, 3, 2, 1.5, 1, or 0.5 s. A T1ρ filter of 2 ms was employed in STD experiments to eliminate the background signals from the protein. The STD spectrum was obtained by subtraction of the on-resonance spectrum from the off-resonance spectrum. Subtraction was performed by phase cycling to minimize artifacts arising from magnet and temperature instabilities.

In data set [2] the target is T1, F508del-CFTR in CFBE41o– cells (Homo sapiens, UniProt Q99942). Put plainly: HS-YFP microfluorimetric assay of F508del-CFTR rescue (corrector activity). Type of data set: cell-based. The conditions noted are these: CFBE41o– cells co-expressing F508del-CFTR and HS-YFP, 24 h treatment, Figure 5. Here is the method: As a primary screen, the new thiadiazole derivatives 1–46 (Table 1) were tested for their ability to rescue the F508del-CFTR trafficking defect in CFBE41o^– cells, stably co-expressing F508del-CFTR and the HS-YFP (Figure 5). This cell line has been extensively used by our group, in combination with the microfluorimetric assay based on the HS-YFP, to identify and characterize many CFTR correctors.[39],[47] This assay relies on the hypothesis that RNF5 inhibition results in increased mutant CFTR processing and activity. Therefore, it can easily identify putative RNF5 inhibitors, but not other types of RNF5-binding compounds that could have no effect or have a negative effect on CFTR function, such as RNF5 activators (see analog-1). Thus, we opted for this assay as our primary aim was the identification of RNF5 inhibitors as a possible therapeutic strategy in CF. Twenty-four hours after seeding on 96-well plates, CFBE41o^– cells stably expressing F508del-CFTR and the HS-YFP were treated with test compounds at the desired concentration, one compound per well. Cells treated with vehicle alone (DMSO) and with corrector VX-809 (1 μM), respectively, served as negative and positive controls. At the time of the assay, cells were washed with PBS containing (in […]) 137 NaCl, 2.7 KCl, 8.1 Na2HPO4, 1.5 KH2PO4, 1 CaCl2, and 0.5 MgCl2. Cells were then incubated for 25 min with […] of PBS plus forskolin (20 μM) and VX-770 (1 μM) to maximally stimulate F508del-CFTR. Cells were then transferred to a microplate reader (FluoStar Galaxy; BMG Labtech, Offenburg, Germany) for CFTR activity determination. The plate reader was equipped with high-quality excitation (HQ500/20X: 500 ± 10 nm) and emission (HQ535/30M: 535 ± 15 nm) filters for YFP (Chroma Technology). Each assay comprised a continuous 14 s fluorescence reading and 2 s before and 12 s after injection of […] of an iodide-containing solution (PBS with Cl^– replaced by I^–; final I^– concentration […]). Data were normalized to the initial background-subtracted fluorescence. To determine the I^– influx rate, the final 11 s of the data for each well was fitted with an exponential function to extrapolate initial slope (dF/dt). Reproducibility of results was confirmed by performing three independent experiments. CFBE41o^– cells co-expressing F508del-CFTR and the HS-YFP were reverse-transfected with 50 nM (final concentration) siRNAs (Stealth, Life Technologies) in the presence of lipofectamine 2000 as a transfection agent. The following day, the medium was changed, and the cells were incubated at 37 °C for additional 24 h treated with test compounds at the desired concentration, prior to processing the cells for the YFP-based functional assay.
T1 sequence (Q99942 2-180): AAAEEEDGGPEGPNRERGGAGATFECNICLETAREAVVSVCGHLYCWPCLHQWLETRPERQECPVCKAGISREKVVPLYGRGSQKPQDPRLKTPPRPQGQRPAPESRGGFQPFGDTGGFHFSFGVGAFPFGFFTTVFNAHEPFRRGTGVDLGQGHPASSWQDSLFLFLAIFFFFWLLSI
T1 sequence (P13569 with tags, fused parts or gaps DEL508-508 partner): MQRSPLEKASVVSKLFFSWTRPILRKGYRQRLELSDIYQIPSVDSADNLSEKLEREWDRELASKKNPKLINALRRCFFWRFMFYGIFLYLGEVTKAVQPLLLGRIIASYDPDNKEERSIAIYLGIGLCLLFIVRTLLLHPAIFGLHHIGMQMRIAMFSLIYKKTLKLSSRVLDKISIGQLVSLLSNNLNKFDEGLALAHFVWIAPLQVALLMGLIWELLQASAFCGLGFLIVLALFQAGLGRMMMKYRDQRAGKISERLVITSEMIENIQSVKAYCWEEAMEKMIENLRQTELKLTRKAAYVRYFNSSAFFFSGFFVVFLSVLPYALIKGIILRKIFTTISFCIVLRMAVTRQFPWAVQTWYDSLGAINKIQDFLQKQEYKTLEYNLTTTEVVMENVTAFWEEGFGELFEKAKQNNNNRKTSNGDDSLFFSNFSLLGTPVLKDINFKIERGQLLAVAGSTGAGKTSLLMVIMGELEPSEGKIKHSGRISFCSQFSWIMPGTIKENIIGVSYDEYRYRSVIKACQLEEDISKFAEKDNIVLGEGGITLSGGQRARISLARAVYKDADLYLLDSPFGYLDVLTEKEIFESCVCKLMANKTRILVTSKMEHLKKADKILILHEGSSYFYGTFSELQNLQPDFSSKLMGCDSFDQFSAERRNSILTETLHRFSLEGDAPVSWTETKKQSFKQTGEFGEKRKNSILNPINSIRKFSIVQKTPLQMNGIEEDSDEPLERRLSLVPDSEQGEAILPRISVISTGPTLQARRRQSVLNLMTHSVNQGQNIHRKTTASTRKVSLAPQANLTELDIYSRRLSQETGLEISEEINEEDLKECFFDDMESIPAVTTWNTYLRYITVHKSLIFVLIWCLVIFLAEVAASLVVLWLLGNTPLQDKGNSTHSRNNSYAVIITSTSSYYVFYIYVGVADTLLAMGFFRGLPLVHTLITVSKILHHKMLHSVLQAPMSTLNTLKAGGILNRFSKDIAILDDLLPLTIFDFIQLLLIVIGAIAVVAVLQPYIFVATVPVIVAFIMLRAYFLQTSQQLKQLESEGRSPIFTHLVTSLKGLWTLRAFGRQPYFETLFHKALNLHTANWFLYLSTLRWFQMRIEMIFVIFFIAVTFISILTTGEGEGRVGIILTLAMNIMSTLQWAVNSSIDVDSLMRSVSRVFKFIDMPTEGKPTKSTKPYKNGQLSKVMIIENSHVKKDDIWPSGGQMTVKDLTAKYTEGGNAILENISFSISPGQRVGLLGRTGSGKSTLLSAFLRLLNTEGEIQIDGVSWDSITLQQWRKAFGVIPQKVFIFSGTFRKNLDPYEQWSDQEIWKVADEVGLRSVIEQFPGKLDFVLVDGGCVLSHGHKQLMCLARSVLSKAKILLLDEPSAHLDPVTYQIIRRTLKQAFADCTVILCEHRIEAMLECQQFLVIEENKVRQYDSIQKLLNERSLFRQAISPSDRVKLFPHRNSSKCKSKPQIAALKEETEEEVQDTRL

In the next data set the test system is CFBE41o– cells. Put plainly: Apoptosis assay (Hoechst 33342 / propidium iodide, high-content imaging). The class given is cell-based, human. The following applies: 24 h, 100 μM. On the procedure: We performed a preliminary evaluation of the effect of chronic treatment with selected analogues on the proliferation and apoptosis of CFBE41o^– cells (Figure 7). Indeed, RNF5 can modulate cell motility and proliferation by regulating paxillin ubiquitylation and thus its degradation.[53] For the proliferation assay, CFBE41o^– cells stably co-expressing F508del-CFTR and the HS-YFP were treated with test compounds (5 μM), VX-809 (1 μM), or vehicle alone (DMSO) for 48 h. Cell proliferation was then monitored by measuring the area covered by the cells based on the YFP signal. For the apoptosis assay, 24 h after plating, CFBE41o^– cells stably expressing F508del-CFTR were treated with test compounds (5, 20, and 100 μM), VX-809 (1 μM), MG132 (50 μM), or vehicle alone (DMSO) for 24 h. Cell nuclei were then counterstained with Hoechst 33342 and propidium iodide to visualize the total and apoptotic cell count, respectively, and imaged by using an Opera Phenix high-content screening system.
CFBE41o^– cells stably expressing F508del-CFTR and the HS-YFP were plated at a low density (5000 cell/well) on 96-well plates suitable for high-content imaging. […] Cell proliferation was monitored (by exploiting the YFP signal to determine the area covered by cells) for 48 h using the Opera Phenix (PerkinElmer) high-content screening system. […] Data are expressed as means ± SEM, n = 6. […]

Data set [3] has as its system ATG4B-mediated basal autophagy in F508del-CFTR-expressing CFBE41o– cells. Briefly: Labeling of autophagic vacuoles with monodansylcadaverine (MDC). The class given is cell-based, human. The following applies: test compounds 5 μM 24 h; torin-1 20 nM and SAR-405 2 μM in the last 3 h. An excerpt:
To further support our hypothesis that CFTR rescue following treatment with test compounds was indeed due to RNF5 inhibition, we considered additional biological processes known to be regulated by RNF5 ligase activity. To this aim, we focused our attention on ATG4B, a known regulator of basal autophagy, whose degradation is mediated by RNF5 activity.[54]In vivo ubiquitination experiments previously confirmed that inh-2 inhibits ATG4B degradation, thus increasing the basal level of autophagy.[40] […] We thus evaluated the effect of inh-2 analogues on induction of the autophagy pathway. To this aim, we monitored the formation of autophagic vacuoles in F508del-CFTR-expressing CFBE41o^– cells (Figure 8) by using the autolysosome marker monodansylcadaverine (MDC). MDC accumulates inside autophagosomes. After fusion of autophagosomes with lysosomes, MDC fluorescence increases due to the acidic environment.[55] Therefore, F508del-CFTR-expressing CFBE41o^– cells were treated for 24 h with test compounds (5 μM), VX-809 (1 μM), or DMSO alone (vehicle). In the last 3 h of incubation, we added torin-1 (20 nM), a known autophagy inducer, and SAR-405 (2 μM), a potent inhibitor of the autophagic pathway. The cells were then loaded with MDC and evaluated by high-content confocal imaging to detect signal spots (corresponding to autophagic vacuoles) in each cell.
CFBE41o^– cells stably expressing F508del-CFTR and the HS-YFP were plated (50,000 cells/well) on good-quality clear-bottom 96-well black microplates suitable for high-content imaging. After 24 h, cells were treated with test compounds or DMSO (as the negative control). […] After 24 h, cells were incubated with 50 μM MDC (Sigma-Aldrich) in PBS at 37 °C for 10 min.[62] After incubation, cells were washed three times with PBS and immediately analyzed. High-content imaging and data analysis were performed using the Opera Phenix (PerkinElmer) high-content screening system. Wells were imaged in confocal mode using a 40× water-immersion objective. The MDC signal was laser-excited at 405 nm, and the emission wavelengths were collected between 435 and 550 nm. Data analysis of MDC spot number was performed using the Harmony software (ver 4.5) of the Opera Phenix high-content system. Data are expressed as means ± SEM, n = 3 independent experiments. Statistical significance was tested by parametric ANOVA followed by the Dunnet multiple comparisons test (all groups against the control group).

In data set [4] the target is T1, F508del-CFTR in CFBE41o– cells. The arrangement: method as in PMID 29754957. The following applies: cited from earlier work.

The values below come from PMC10388311, “Innovative Strategy toward Mutant CFTR Rescue in Cystic Fibrosis: Design and Synthesis of Thiadiazole Inhibitors of the E3 Ligase RNF5” (Journal of Medicinal Chemistry, 2023).

“Also recorded” adds a separate entry of the source.

A word on the solubility: it is how much of the substance goes into solution per volume. As to `Cc1ns/c(=N\C(=N\c2ccccc2)c2ccccc2)n1Cc1cccc(O)c1` [Compound 17, (E)-N-((Z)-4-(3-Hydroxybenzyl)-3-methyl-1,2,4-thiadiazol-5(4H)-ylidene)-N′-phenylbenzimidamide], in data set [1], the solubility is under 5 µM, the “aggregation in PBS buffer by NMR” value is “no”, the solubility at 50 µM is reported as under 5 µM and the solubility at 100 µM was under 5 µM. The “F508del-CFTR corrector activity compared with inh-2 (CFTR activity, primary screen)” value in data set [2] is “increased activity”. Besides, the cell apoptosis result in the data set with CFBE41o– cells was “markedly increased cell apoptosis”.
On to `Cc1ns/c(=N\C(=N\c2ccccc2)c2ccccc2)n1-c1ccccc1` [analog-1, reference compound], for which the “number of autophagic vacuoles (MDC signal spots)” value in data set [3] is reported as “significantly decreased”. Also, the “CFTR corrector activity (in words)” value in data set [4] was “no activity as a CFTR corrector; also recorded: lack of CFTR corrector activity”. For the same compound, in data set [1], the solubility is under 5 µM, the “aggregation in PBS buffer by NMR” value is given as “no”, the solubility at 50 µM is given as under 5 µM and the solubility at 100 µM is under 5 µM.
